Structures can show the parent of a compound that is named as a salt.

In the first experiment the target is T1, MPO (purified from human polynuclear leukocytes) (Homo sapiens, UniProt P05164).
T1 construct: purified from human polynuclear leukocytes; purchased Calbiochem/EMD Biosciences; host or cells: human polynuclear leukocytes (natural source)
T1 sequence (P05164 279-745 limits assumed): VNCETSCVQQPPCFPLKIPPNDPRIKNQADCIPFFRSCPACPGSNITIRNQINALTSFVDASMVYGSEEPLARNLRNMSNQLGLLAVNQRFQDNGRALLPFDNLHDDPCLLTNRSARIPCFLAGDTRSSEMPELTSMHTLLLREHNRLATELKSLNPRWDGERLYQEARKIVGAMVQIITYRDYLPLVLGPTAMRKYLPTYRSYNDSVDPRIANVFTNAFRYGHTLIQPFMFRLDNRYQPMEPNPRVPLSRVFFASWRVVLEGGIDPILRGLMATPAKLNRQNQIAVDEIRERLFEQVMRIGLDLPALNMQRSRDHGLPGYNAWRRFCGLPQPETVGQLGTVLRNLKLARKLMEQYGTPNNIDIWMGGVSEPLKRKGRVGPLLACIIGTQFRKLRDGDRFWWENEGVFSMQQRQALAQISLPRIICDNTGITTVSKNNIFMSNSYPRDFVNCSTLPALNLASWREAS
T1 sequence (P05164 165-273 limits assumed): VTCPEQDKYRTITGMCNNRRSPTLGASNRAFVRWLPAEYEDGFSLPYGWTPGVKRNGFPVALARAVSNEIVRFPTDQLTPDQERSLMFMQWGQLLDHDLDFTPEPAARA
Briefly: MPO Amplex Red Activity Assay. The class given is biochemical. The note with it: Table 1, 2 μM H2O2, pH 7.4. Summed up:
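Human leukocyte MPO […] oxidises 30 μM Amplex Red with 2 μM H2O2 in 50 mM NaPi pH 7.4, 150 mM NaCl, 1 mM DTPA, 2% DMSO. Resorufin fluorescence (ex 530/em 580 nm) read every 20 s, minus catalase background. kobs from the first 600 s, corrected for auto-inactivation, fit versus [I] for kinact/KI.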
Consider `COc1ccc(-c2cc(=O)[nH]c(=S)n2C[C@@H]2CCCO2)c(OC)c1` [Example 213, 6-(2,4-dimethoxyphenyl)-1-[(2S)-tetrahydrofuran-2-ylmethyl]-2-thioxo-2,3-dihydropyrimidin-4(1H)-one], for which the “MPO kinact/Ki” value is given as 4690 1/s per M.
The same measure, in the same setting: next, `COCCn1c(-c2cc3ccccc3[nH]2)cc(=O)[nH]c1=S` [Example 302, 6-(1H-indol-2-yl)-1-(2-methoxyethyl) 2-thioxo-2,3-dihydropyrimidin-4(1H)-one]: 3630 1/s per M.
On the same count and under the same terms, next, `COc1ccc(OC)c(-c2cc(=O)[nH]c(=S)n2CC(N)=O)c1` [Example 2, 2-(6-(2,5-Dimethoxyphenyl)-4-oxo-2-thioxo-3,4-dihydropyrimidin-1(2H)-yl)acetamide]: 12500 1/s per M.
On the same count and under the same terms, next, `COCCn1c(-c2nc(C)ccc2OC)cc(=O)[nH]c1=S` [Example 49, 1-(2-methoxyethyl)-6-(3-methoxy-6-methylpyridin-2-yl)-2-thioxo-2,3-dihydropyrimidin-4(1H)-one]: 2230 1/s per M; `COCCn1c(-c2ccccc2O)cc(=O)[nH]c1=S` [Example 288, 6-(2-hydroxyphenyl)-1-(2-methoxyethyl)-2-thioxo-2,3-dihydropyrimidin-4(1H)-one]: 4230 1/s per M.
Turning to `O=c1cc(-c2ccc3c(c2)CCO3)n(CCO)c(=S)[nH]1` [Example 15, 6-(2,3-dihydro-1-benzofuran-5-yl)-1-(2-hydroxyethyl)-2-thioxo-2,3-dihydropyrimidin-4(1H)-one], the “MPO kinact/Ki” value is 5420 1/s per M.
Still for that read-out and setting: next, `COCCn1c(-c2ccc(C(=O)N(C)C)cc2)cc(=O)[nH]c1=S` [Example 336, 4-[3-(2-methoxyethyl)-6-oxo-2-thioxo-1,2,3,6-tetrahydropyrimidin-4-yl]-N,N-dimethylbenzamide]: 589 1/s per M.
The same measure, in the same setting: next, `COc1cc(OC)c(-c2cc(=O)[nH]c(=S)n2CCCN)cc1F` [Example 108, 1-(3-aminopropyl)-6-(5-fluoro-2,4-dimethoxyphenyl)-2-thioxo-2,3-dihydropyrimidin-4(1H)-one hydrochloride]: 5800 1/s per M.
The same measure, in the same setting: next, `COCCn1c(-c2cc(F)ccc2OC)cc(=O)[nH]c1=S` [Example 317, 6-(5-fluoro-2-methoxyphenyl)-1-(2-methoxyethyl)-2-thioxo-2,3-dihydropyrimidin-4(1H)-one]: 7380 1/s per M.
Turning to `COc1cc(F)ccc1-c1cc(=O)[nH]c(=S)n1CCN` [Example 25, 1-(2-aminoethyl)-6-(4-fluoro-2-methoxyphenyl)-2-thioxo-2,3-dihydropyrimidin-4(1H)-one hydrochloride], the “MPO kinact/Ki” value is listed as 9210 1/s per M.
Consider `COCCn1c(-c2cc3ccccc3n2C)cc(=O)[nH]c1=S` [Example 66, 1-(2-methoxyethyl)-6-(1-methyl-1H-indol-2-yl)-2-thioxo-2,3-dihydropyrimidin-4(1H)-one], for which the “MPO kinact/Ki” value was 1580 1/s per M.
Regarding `COCCn1c(-c2ccccc2OC)cc(=O)[nH]c1=S` [Example 160, 1-(2-methoxyethyl)-6-(2-methoxyphenyl)-2-thioxo-2,3-dihydropyrimidin-4(1H)-one], the “MPO kinact/Ki” value is recorded as 7540 1/s per M.
In the case of `COc1ccccc1-c1cc(=O)[nH]c(=S)n1CCN=C(N)N` [Example 77, 2-{2-[6-(2-methoxyphenyl)-4-oxo-2-thioxo-3,4-dihydropyrimidin-1(2H)-yl]ethyl}guanidine hydrochloride], the “MPO kinact/Ki” value is listed as 6660 1/s per M.
Same read-out and setting: next, `COc1ccc(-c2cc(=O)[nH]c(=S)n2CC(=O)OC(C)(C)C)c(OC)c1` [Example 137, tert-butyl[6-(2,4-dimethoxyphenyl)-4-oxo-2-thioxo-3,4-dihydropyrimidin-1(2H)-yl]acetate]: 701 1/s per M.
Still for that read-out and setting: next, `COc1ccc(-c2cc(=O)[nH]c(=S)n2CC2CCN(C(=N)N)C2)c(OC)c1` (centres unmarked) [Example 259, 3-{[6-(2,4-dimethoxyphenyl)-4-oxo-2-thioxo-3,4-dihydropyrimidin-1(2H)-yl]methyl}pyrrolidine-1-carboximidamide trifluoroacetate]: 4000 1/s per M; `COc1ccc(F)cc1-c1cc(=O)[nH]c(=S)n1CCCN` [Example 58, 1-(3-aminopropyl)-6-(5-fluoro-2-methoxyphenyl)-2-thioxo-2,3-dihydropyrimidin-4(1H)-one hydrochloride]: 11700 1/s per M.
Same read-out and setting: next, `NCCCn1c(-c2ccc3c(c2)CCO3)cc(=O)[nH]c1=S` [Example 38, 1-(3-aminopropyl)-6-(2,3-dihydro-1-benzofuran-5-yl)-2-thioxo-2,3-dihydropyrimidin-4(1H)-one hydrochloride]: 5240 1/s per M; `COCCn1c(-c2ccc(O)cc2)cc(=O)[nH]c1=S` [Example 286, 6-(4-hydroxyphenyl)-1-(2-methoxyethyl)-2-thioxo-2,3-dihydropyrimdin-4(1H)-one]: 1500 1/s per M.
Take `COc1ccc(-c2cc(=O)[nH]c(=S)n2C[C@H]2CCCN2)c(OC)c1` [Example 267, 6-(2,4-dimethoxyphenyl)-1-[(2R)-pyrrolidin-2-ylmethyl]-2-thioxo-2,3-dihydropyrimidin-4(1H)-one hydrochloride]: the “MPO kinact/Ki” value was 3840 1/s per M.
On the same count and under the same terms, next, `COCCn1c(-c2ccc3ccccc3c2)cc(=O)[nH]c1=S` [Example 276, 1-(2-methoxyethyl)-6-(2-naphthyl)-2-thioxo-2,3-dihydropyrimidin-4(1H)-one]: 6710 1/s per M.
On the same count and under the same terms, next, `COc1ccc(C)cc1-c1cc(=O)[nH]c(=S)n1CCO` [Example 161, 1-(2-hydroxyethyl)-6-(2-methoxy-5-methylphenyl)-2-thioxo-2,3-dihydropyrimidin-4(1H)-one]: 29600 1/s per M; `COc1ccccc1-c1cc(=O)[nH]c(=S)n1CC(N)=O` [Example 17, 2-[6-(2-methoxyphenyl)-4-oxo-2-thioxo-3,4-dihydropyrimidin-1(2H)-yl]acetamide]: 4460 1/s per M.
The same measure, in the same setting: next, `COCCn1c(-c2cccc3cccnc23)cc(=O)[nH]c1=S` [Example 322, 1-(2-methoxyethyl)-6-quinolin-8-yl-2-thioxo-2,3-dihydropyrimidin-4(1H)-one]: 2800 1/s per M; `COc1ccc(-c2cc(=O)[nH]c(=S)n2CC2CNCCO2)c(OC)c1` (centres unmarked) [Example 238, 6-(2,4-dimethoxyphenyl)-1-(morpholin-2-ylmethyl)-2-thioxo-2,3-dihydropyrimidin-4(1H)-one hydrochloride]: 8740 1/s per M; `COc1ccc(C)cc1-c1cc(=O)[nH]c(=S)n1CCN` [Example 159, 1-(2-aminoethyl)-6-(2-methoxy-5-methylphenyl)-2-thioxo-2,3-dihydropyrimidin-4(1H)-one hydrochloride]: 11400 1/s per M.

Staying with this experiment, now noted: Table 1A, 2 μM H2O2, pH 7.4.
Take `COc1ccc(Cl)cc1-c1cc(=O)[nH]c(=S)n1CC(=O)NC(=N)N` [Example 376, N-carbamidoyl-2-[6-(5-chloro-2-methoxyphenyl)-4-oxo-2-thioxo-3,4-dihydropyrimidin-1(2H)-yl]acetamide]: the “MPO kinact/Ki” value is on record as 7870 1/s per M.
On the same count and under the same terms, next, `CC(=O)OCCOc1ccc(F)cc1-c1cc(=O)[nH]c(=S)n1CC(N)=O` [Example 421, 2-{2-[3-(2-amino-2-oxoethyl)-6-oxo-2-thioxo-1,2,3,6-tetrahydropyrimidin-4-yl]-4-fluorophenoxy}ethyl acetate]: 4950 1/s per M; `NCCn1c(-c2cc(Cl)ccc2OCCO)cc(=O)[nH]c1=S` [Example 427, 1-(2-aminoethyl)-6-[5-chloro-2-(2-hydroxyethoxy)phenyl]-2-thioxo-2,3-dihydropyrimidin-4(1H)-one]: 5360 1/s per M; `NC(=O)Cn1c(-c2cc(Cl)ccc2O)cc(=O)[nH]c1=S` [Example 377, 2-[6-(5-chloro-2-hydroxyphenyl)-4-oxo-2-thioxo-3,4-dihydropyrimidin-1(2H)-yl]acetamide]: 8770 1/s per M.
Turning to `COc1ccc(-c2cc(=O)[nH]c(=S)n2CC(=O)N[C@H](C)[C@@H](C)N)c(OC)c1` [Example 433, N-[(2R,3R)-3-aminobutan-2-yl]-2-[6-(2,4-dimethoxyphenyl)-4-oxo-2-thioxo-3,4-dihydropyrimidin-1(2H)-yl]acetamide], the “MPO kinact/Ki” value is 3490 1/s per M.
Same read-out and setting: next, `COc1ccc(-c2cc(=O)[nH]c(=S)n2CC(=O)NC[C@H](C)N)c(OC)c1` [Example 396, N-[(2S)-2-aminopropyl]-2-[6-(2,4-dimethoxyphenyl)-4-oxo-2-thioxo-3,4-dihydropyrimidin-1(2H)-yl]acetamide]: 10900 1/s per M; `NC(=O)Cn1c(-c2ccccc2O)cc(=O)[nH]c1=S` [Example 368, 2-[6-(2-hydroxyphenyl)-4-oxo-2-thioxo-3,4-dihydropyrimidin-1(2H)-yl]acetamide]: 3270 1/s per M.
Same read-out and setting: next, `CNCCNC(=O)Cn1c(-c2ccc(OC)cc2OC)cc(=O)[nH]c1=S` [Example 391, 2-[6-(2,4-dimethoxyphenyl)-4-oxo-2-thioxo-3,4-dihydropyrimidin-1(2H)-yl]-N-[2-(methylamino)ethyl]acetamide]: 3480 1/s per M.
Same read-out and setting: next, `O=c1cc(-c2ccc(F)cc2OCCO)n(CCO)c(=S)[nH]1` [Example 413, 6-[4-fluoro-2-(2-hydroxyethoxy)phenyl]-1-(2-hydroxyethyl)-2-thioxo-2,3-dihydropyrimidin-4(1H)-one]: 6560 1/s per M.
Consider `COc1ccccc1-c1cc(=O)[nH]c(=S)n1CC(=O)NCCN` [Example 372, N-(2-aminoethyl)-2-[6-(2-methoxyphenyl)-4-oxo-2-thioxo-3,4-dihydropyrimidin-1(2H)-yl]acetamide], for which the “MPO kinact/Ki” value is listed as 6250 1/s per M.

The values above are taken from patent US9399626B2, “2-thiopyrimidinones” (Pfizer Inc., priority 2011, dated 2016).
